Test results published in patent publication US5393743A, “Erythromycin derivatives” (Abbott Laboratories, priority 1993, dated 1995).
Values after ≈ are worked out from the molar mass of the structure shown. Read-outs that look alike come from different tables or passages of the source.

Columns and labels:
[1] = test system: Acinetobacter calcoaceticus CMX 669; test: In vitro antibacterial activity, agar dilution MIC; type: cell-based
Procedure: (§1) Representative compounds of the present invention were assayed in vitro for antibacterial activity as follows: Twelve petri dishes containing successive aqueous dilutions of the test compound mixed with 10 mL of sterilized Brain Heart Infusion (BHI) agar (Difco 0418-01-5) were prepared. Each plate was inoculated with 1:100 (or 1:10 for slow-growing strains, such as Micrococcus and Streptococcus) dilutions of up to 32 different microorganisms, using a Steers replicator block. The inoculated plates were incubated 35°-37° C. for 20 to 24 hours. In addition, a control plate, using BHI agar containing no test compound, was prepared and incubated at the beginning and end of each test.
(§2) An additional plate containing a compound having known susceptibility patterns for the organisms being tested and belonging to the same antibiotic class as the test compound was also prepared and incubated as a further control, as well as to provide test-to-test comparability. Erythromycin A was used for this purpose.
(§3) After incubation, each disk was read. The minimum inhibitory concentration (MIC) was defined as the lowest concentration of drug yielding no growth, a slight haze, or sparsely isolated colonies on the inoculum spot as compared to the growth control.

[2] = test system: Enterobacter aerogenes ATCC 13048; test: In vitro antibacterial activity, agar dilution MIC; type: cell-based
Procedure: as §1, §2, §3

[3] = test system: Enterococcus faecium ATCC 8043; test: In vitro antibacterial activity, agar dilution MIC; type: cell-based
Procedure: as §1, §2, §3

[4] = test system: Escherichia coli DC-2; test: In vitro antibacterial activity, agar dilution MIC; type: cell-based
Procedure: as §1, §2, §3

[5] = test system: Escherichia coli H560; test: In vitro antibacterial activity, agar dilution MIC; type: cell-based
Procedure: as §1, §2, §3

[6] = test system: Escherichia coli Juhl; test: In vitro antibacterial activity, agar dilution MIC; type: cell-based
Procedure: as §1, §2, §3

[7] = test system: Escherichia coli KNK 437; test: In vitro antibacterial activity, agar dilution MIC; type: cell-based
Procedure: as §1, §2, §3

[8] = test system: Klebsiella pneumoniae ATCC 8045; test: In vitro antibacterial activity, agar dilution MIC; type: cell-based
Procedure: as §1, §2, §3

[9] = test system: Micrococcus luteus 4698; test: In vitro antibacterial activity, agar dilution MIC; type: cell-based
Procedure: as §1, §2, §3

[10] = test system: Providencia stuartii CMX 640; test: In vitro antibacterial activity, agar dilution MIC; type: cell-based
Procedure: as §1, §2, §3

[11] = test system: Pseudomonas aeruginosa 2862; test: In vitro antibacterial activity, agar dilution MIC; type: cell-based
Procedure: as §1, §2, §3

[12] = test system: Pseudomonas aeruginosa 5263; test: In vitro antibacterial activity, agar dilution MIC; type: cell-based
Procedure: as §1, §2, §3

[13] = test system: Pseudomonas aeruginosa A5007; test: In vitro antibacterial activity, agar dilution MIC; type: cell-based
Procedure: as §1, §2, §3

[14] = test system: Pseudomonas aeruginosa BMH10; test: In vitro antibacterial activity, agar dilution MIC; type: cell-based
Procedure: as §1, §2, §3

[15] = test system: Pseudomonas aeruginosa K799/WT; test: In vitro antibacterial activity, agar dilution MIC; type: cell-based
Procedure: as §1, §2, §3

[16] = test system: Pseudomonas cepacia 2961; test: In vitro antibacterial activity, agar dilution MIC; type: cell-based
Procedure: as §1, §2, §3

[17] = test system: Staphylococcus aureus 1775 Cipro R; test: In vitro antibacterial activity, agar dilution MIC; type: cell-based
Procedure: as §1, §2, §3

[18] = test system: Staphylococcus aureus A5177; test: In vitro antibacterial activity, agar dilution MIC; type: cell-based
Procedure: as §1, §2, §3

[19] = test system: Staphylococcus aureus A5278; test: In vitro antibacterial activity, agar dilution MIC; type: cell-based
Procedure: as §1, §2, §3

[20] = test system: Staphylococcus aureus ATCC 6538P; test: In vitro antibacterial activity, agar dilution MIC; type: cell-based
Procedure: as §1, §2, §3

[21] = test system: Staphylococcus aureus CMX 553; test: In vitro antibacterial activity, agar dilution MIC; type: cell-based
Procedure: as §1, §2, §3

[22] = test system: Staphylococcus aureus CMX 642a; test: In vitro antibacterial activity, agar dilution MIC; type: cell-based
Procedure: as §1, §2, §3

[23] = test system: Staphylococcus aureus NCTC 10649; test: In vitro antibacterial activity, agar dilution MIC; type: cell-based
Procedure: as §1, §2, §3

[24] = test system: Staphylococcus epidermidis 3519; test: In vitro antibacterial activity, agar dilution MIC; type: cell-based
Procedure: as §1, §2, §3

[25] = test system: Streptococcus agalactiae 508; test: In vitro antibacterial activity, agar dilution MIC; type: cell-based
Procedure: as §1, §2, §3

[26] = test system: Streptococcus bovis A5169; test: In vitro antibacterial activity, agar dilution MIC; type: cell-based
Procedure: as §1, §2, §3

[27] = test system: Streptococcus pyogenes 2548 induc; test: In vitro antibacterial activity, agar dilution MIC; type: cell-based
Procedure: as §1, §2, §3

[28] = test system: Streptococcus pyogenes 930 const; test: In vitro antibacterial activity, agar dilution MIC; type: cell-based
Procedure: as §1, §2, §3

[29] = test system: Streptococcus pyogenes EES61; test: In vitro antibacterial activity, agar dilution MIC; type: cell-based
Procedure: as §1, §2, §3

[30] = test system: Escherichia coli SS; test: microbe, parasite or virus in culture
Procedure: as §1, §2, §3

[31] = test system: Micrococcus luteus ATCC 9341; test: microbe, parasite or virus in culture
Procedure: as §1, §2, §3

[32] = test system: Pseudomonas aeruginosa K799/61; test: In vitro antibacterial activity, agar dilution MIC; type: cell-based; settings: BHI agar, 35°-37° C., 20 to 24 hours

Compound: CC[C@H]1OC(=O)[C@H](C)[C@@H](O[C@H]2C[C@@](C)(OC)[C@@H](O)[C@H](C)O2)[C@H](C)[C@@H](O[C@@H]2O[C@H](C)C[C@H](N(C)C)[C@H]2O)[C@](C)(O)C[C@@H](C)C(=O)[C@H](C)[C@@H](O)[C@]1(C)O [CONTROL, Erythromycin A, reference compound]
- MIC ([1]; Acinetobacter calcoaceticus, CMX669): 1.56 µg/mL (≈ 2.13 µM)
- MIC ([2]; Klebsiella aerogenes, ATCC13048): 100 µg/mL (≈ 136 µM)
- MIC ([3]; Enterococcus faecium, ATCC8043): 0.1 µg/mL (≈ 0.136 µM)
- MIC ([4]; Escherichia coli, DC2): 100 µg/mL (≈ 136 µM)
- MIC ([5]; Escherichia coli, H560): 50 µg/mL (≈ 68.1 µM)
- MIC ([6]; Escherichia coli): 50 µg/mL (≈ 68.1 µM)
- MIC ([7]; Escherichia coli, KNK437): 50 µg/mL (≈ 68.1 µM)
- MIC ([8]; Klebsiella pneumoniae, ATCC8045): 50 µg/mL (≈ 68.1 µM)
- MIC ([9]; Micrococcus luteus, 4698): 0.39 µg/mL (≈ 0.531 µM)
- MIC ([10]; Providencia stuartii, CMX640): > 100 µg/mL
- MIC ([11]; Pseudomonas aeruginosa, 2862): > 100 µg/mL
- MIC ([12]; Pseudomonas aeruginosa, 5263): > 100 µg/mL
- MIC ([13]; Pseudomonas aeruginosa, A5007): > 100 µg/mL
- MIC ([14]; Pseudomonas aeruginosa, BMH10): 100 µg/mL (≈ 136 µM)
- MIC ([15]; Pseudomonas aeruginosa, K799/WT): > 100 µg/mL
- MIC ([16]; Burkholderia cepacia, 2961): > 100 µg/mL
- MIC ([17]; Staphylococcus aureus, 1775CIPROR): > 100 µg/mL
- MIC ([18]; Staphylococcus aureus, A5177): 1.56 µg/mL (≈ 2.13 µM)
- MIC ([19]; Staphylococcus aureus, A5278): > 100 µg/mL
- MIC ([20]; Staphylococcus aureus, ATCC6538P): 0.2 µg/mL (≈ 0.273 µM)
- MIC ([21]; Staphylococcus aureus, CMX553): 0.2 µg/mL (≈ 0.273 µM)
- MIC ([22]; Staphylococcus aureus, CMX642A): 0.2 µg/mL (≈ 0.273 µM)
- MIC ([23]; Staphylococcus aureus, NCTC10649): 0.2 µg/mL (≈ 0.273 µM)
- MIC ([24]; Staphylococcus epidermidis, 3519): 0.2 µg/mL (≈ 0.273 µM)
- MIC ([25]; Streptococcus agalactiae, 508): 0.05 µg/mL (≈ 0.0681 µM)
- MIC ([26]; Streptococcus equinus, A5169): 0.05 µg/mL (≈ 0.0681 µM)
- MIC ([27]; Streptococcus pyogenes, 2548INDUC): 6.2 µg/mL (≈ 8.45 µM)
- MIC ([28]; Streptococcus pyogenes, 930CONST): > 100 µg/mL
- MIC ([29]; Streptococcus pyogenes, EES61): 0.05 µg/mL (≈ 0.0681 µM)
- MIC ([30]; Escherichia coli): 0.39 µg/mL (≈ 0.531 µM)
- MIC ([31]; Micrococcus luteus, ATCC9341): 0.05 µg/mL (≈ 0.0681 µM)
- MIC ([32]; read-out: MIC): 3.1 µg/mL (≈ 4.22 µM)

Compound: (3"S)-11-O,12-O-carbonyl-3"-fluoro-3"-desmethoxy-4"-O-methylerythromycin A [Example 15]
- MIC ([1]; Acinetobacter calcoaceticus CMX 669, BHI agar, 35°-37° C., 20 to 24 hours): 100 µg/mL
- MIC ([2]; Enterobacter aerogenes ATCC 13048, BHI agar, 35°-37° C., 20 to 24 hours): > 100 µg/mL
- MIC ([3]; Enterococcus faecium ATCC 8043, BHI agar, 35°-37° C., 20 to 24 hours): 0.05 µg/mL
- MIC ([4]; Escherichia coli DC-2, BHI agar, 35°-37° C., 20 to 24 hours): 100 µg/mL
- MIC ([5]; Escherichia coli H560, BHI agar, 35°-37° C., 20 to 24 hours): 50 µg/mL
- MIC ([6]; Escherichia coli Juhl, BHI agar, 35°-37° C., 20 to 24 hours): 100 µg/mL
- MIC ([7]; Escherichia coli KNK 437, BHI agar, 35°-37° C., 20 to 24 hours): 100 µg/mL
- MIC ([8]; Klebsiella pneumoniae ATCC 8045, BHI agar, 35°-37° C., 20 to 24 hours): 100 µg/mL
- MIC ([9]; Micrococcus luteus 4698, BHI agar, 35°-37° C., 20 to 24 hours): 0.1 µg/mL
- MIC ([10]; Providencia stuartii CMX 640, BHI agar, 35°-37° C., 20 to 24 hours): > 100 µg/mL
- MIC ([11]; Pseudomonas aeruginosa 2862, BHI agar, 35°-37° C., 20 to 24 hours): > 100 µg/mL
- MIC ([12]; Pseudomonas aeruginosa 5263, BHI agar, 35°-37° C., 20 to 24 hours): > 100 µg/mL
- MIC ([13]; Pseudomonas aeruginosa A5007, BHI agar, 35°-37° C., 20 to 24 hours): > 100 µg/mL
- MIC ([14]; Pseudomonas aeruginosa BMH10, BHI agar, 35°-37° C., 20 to 24 hours): > 100 µg/mL
- MIC ([15]; Pseudomonas aeruginosa K799/WT, BHI agar, 35°-37° C., 20 to 24 hours): 100 µg/mL
- MIC ([16]; Pseudomonas cepacia 2961, BHI agar, 35°-37° C., 20 to 24 hours): 25 µg/mL
- MIC ([17]; Staphylococcus aureus 1775 Cipro R, BHI agar, 35°-37° C., 20 to 24 hours): > 100 µg/mL
- MIC ([18]; Staphylococcus aureus A5177, BHI agar, 35°-37° C., 20 to 24 hours): 6.2 µg/mL
- MIC ([19]; Staphylococcus aureus A5278, BHI agar, 35°-37° C., 20 to 24 hours): > 100 µg/mL
- MIC ([20]; Staphylococcus aureus ATCC 6538P, BHI agar, 35°-37° C., 20 to 24 hours): 0.39 µg/mL
- MIC ([21]; Staphylococcus aureus CMX 553, BHI agar, 35°-37° C., 20 to 24 hours): 0.39 µg/mL
- MIC ([22]; Staphylococcus aureus CMX 642a, BHI agar, 35°-37° C., 20 to 24 hours): 0.39 µg/mL
- MIC ([23]; Staphylococcus aureus NCTC 10649, BHI agar, 35°-37° C., 20 to 24 hours): 0.39 µg/mL
- MIC ([24]; Staphylococcus epidermidis 3519, BHI agar, 35°-37° C., 20 to 24 hours): 0.39 µg/mL
- MIC ([25]; Streptococcus agalactiae 508, BHI agar, 35°-37° C., 20 to 24 hours): 0.05 µg/mL
- MIC ([26]; Streptococcus bovis A5169, BHI agar, 35°-37° C., 20 to 24 hours): 0.01 µg/mL
- MIC ([27]; Streptococcus pyogenes 2548 induc, BHI agar, 35°-37° C., 20 to 24 hours): 0.39 µg/mL
- MIC ([28]; Streptococcus pyogenes 930 const, BHI agar, 35°-37° C., 20 to 24 hours): > 100 µg/mL
- MIC ([29]; Streptococcus pyogenes EES61, BHI agar, 35°-37° C., 20 to 24 hours): 0.05 µg/mL
- MIC ([30]; Escherichia coli SS, BHI agar, 35°-37° C., 20 to 24 hours): 0.2 µg/mL
- MIC ([31]; Micrococcus luteus ATCC 9341, BHI agar, 35°-37° C., 20 to 24 hours): 0.01 µg/mL
- MIC [32]: 3.1 µg/mL
